In patent US7674807B2, “Heterocycle-substituted n-phenyl-phthalamide derivatives, related compounds and their use as insecticides” (Bayer CropScience AG, priority 2004, dated 2010):

Tests used:
[1] = tested on: larva of Spodoptera litura; test: Test against larva of Spodoptera litura (leaf dip, sweet potato leaves); assay type: in vivo; conditions: 20 ppm concentration of the active component; third instar larvae; counted after 7 days; 25° C.
Description: Preparation of Test Solution:
In order to make an appropriate formulation of an active compound, 1 part by weight of the active compound was mixed with the above-mentioned amount of solvent containing the above-mentioned amount of emulsifier and the mixture was diluted with water to a prescribed concentration.
Leaves of sweet potato were soaked in the test solution diluted to a prescribed concentration with water, dried in the air and put in a dish of 9 cm diameter.
10 larvae of Spodoptera litura at the third instar were placed on the leaves and kept in a room at the constant temperature of 25° C. After 2 and 4 days further leaves of sweet potato were added and after 7 days the number of dead larvae was counted and the rate of death was calculated.
In this test the results of 2 dishes at 1 section were averaged.

[2] = tested on: larva of Cnaphalocrocis medinalis Guenee; test: Test against larva of Cnaphalocrocis medinalis Guenee (sprayed paddy rice foliage); assay type: in vivo; conditions: 20 ppm concentration of the active component; second instar larvae; counted after 7 days; 25° C.
Description: Paddy rice (variety: Tamanishiki) planted in a pot was treated by spraying 50 ml per pot of the diluted aqueous solution of the prescribed concentration of the active compound prepared in the same manner as in the above-mentioned Biological Test Example 1. After the treated rice plant was dried in the air, their foliage part was cut in 4-5 cm length, which were put in a dish with 9 cm diameter with a sheet of filter paper and 2 ml of water. Five larvae of Cnaphalocrocis medinalis Guenee at the second instar were put in the dish that was placed in a room at the constant temperature of 25° C. After 2 and 4 days, each rest (each ⅓ amount) of foliage parts of rice plant were cut in the same manner and added to the dish. After 7 days the number of dead larvae was counted and the rate of death was calculated. In this test the results of 2 dishes at 1 section were averaged.

Compound	controlling effect, rate of death [1]	controlling effect, rate of death [2]
Cc1cc(-n2cc(C(F)(F)C(F)(F)F)cn2)ccc1NC(=O)c1cccc(I)c1C(=O)NC(C)(C)CS(C)(=O)=O [compound 448]	100%	100%
CSCC(C)NC(=O)c1c(I)cccc1C(=O)Nc1ccc(-c2cc(C(F)(F)F)nn2C(F)F)cc1C (stereo not shown) [compound 512]	100%	100%
CSC[C@H](C)NC(=O)c1c(I)cccc1C(=O)Nc1ccc(Cn2cc(C(F)(F)C(F)(F)F)c(C(F)(F)F)n2)cc1C [compound 640]	100%	100%
CSC[C@H](C)NC(=O)c1c(I)cccc1C(=O)Nc1ccc(Cn2cc(C(F)(F)C(F)(F)C(F)(F)F)c(C(F)(F)C(F)(F)C(F)(F)F)n2)cc1C [compound 670]	100%	100%
Cc1cc(-n2nc(C(F)(F)F)cc2C(F)(F)F)ccc1NC(=O)c1cccc(Cl)c1C(=O)NC(C)CS(C)(=O)=O (stereo not shown) [compound 322]	100%	100%
CSCC(C)NC(=O)c1c(Cl)cccc1C(=O)Nc1ccc(-n2nc(C(F)(F)F)cc2C(F)(F)F)cc1C (stereo not shown) [compound 318]	100%	100%
Cc1cc(C(C)n2nc(C(F)(F)F)cc2C(F)(F)F)ccc1NC(=O)c1cccc(I)c1C(=O)N[C@@H](C)CS(C)(=O)=O (stereo partly shown) [compound 564]	100%	100%
CSC[C@H](C)NC(=O)c1c(Cl)cccc1C(=O)Nc1ccc(Cn2cc(C(F)(F)C(F)(F)F)c(C(F)(F)F)n2)cc1C [compound 637]	100%	100%
Cc1cc(Cn2nc(C(F)(F)C(F)(F)F)nc2C(F)(F)F)ccc1NC(=O)c1cccc(Cl)c1C(=O)NC(C)C[S+](C)[O-] (stereo not shown) [compound 155]	100%	100%
CSCC(C)NC(=O)c1c(I)cccc1C(=O)Nc1ccc(Cn2nc(C(F)(F)C(F)(F)F)nc2C(F)(F)F)cc1C (stereo not shown) [compound 227]	100%	100%
Cc1cc(Cn2nc(C(F)(F)F)nc2C(F)(F)F)ccc1NC(=O)c1cccc(Cl)c1C(=O)NC(C)CS(C)(=O)=O (stereo not shown) [compound 145]	100%	100%
Cc1cc(Cn2nc(C(F)(F)C(F)(F)F)nc2C(F)(F)F)ccc1NC(=O)c1cccc(Cl)c1C(=O)NC(C)(C)C[S+](C)[O-] (stereo not shown) [compound 150]	100%	100%
CSC[C@H](C)NC(=O)c1c(I)cccc1C(=O)Nc1ccc(Cn2nc(C(F)(F)F)c(I)c2C(F)(F)F)cc1C [compound 554]	100%	100%
Cc1cc(Cn2nc(C(F)(F)F)cc2OC(F)F)ccc1NC(=O)c1cccc(I)c1C(=O)NC(C)CS(C)(=O)=O (racemic) [compound 107]	100%	100%
Cc1cc(Cn2nc(C(F)(F)F)cc2C(F)(F)F)ccc1NC(=O)c1cccc(I)c1C(=O)NC(C)C[S+](C)[O-] (mixture of isomers) [compound 88]	100%	100%
Cc1cc(Cn2cc(C(F)(F)C(F)(F)C(F)(F)F)c(C(F)(F)C(F)(F)F)n2)ccc1NC(=O)c1cccc(I)c1C(=O)N[C@@H](C)C[S+](C)[O-] (stereo partly shown) [compound 661]	100%	100%
Cc1cc(Cn2cc(C(F)(F)C(F)(F)F)c(C(F)(F)C(F)(F)F)n2)ccc1NC(=O)c1cccc(I)c1C(=O)N[C@@H](C)CS(C)(=O)=O [compound 656]	100%	100%
Cc1cc(Cn2cc(C(F)(F)C(F)(F)C(F)(F)F)c(C(F)(F)C(F)(F)F)n2)ccc1NC(=O)c1cccc(I)c1C(=O)N[C@@H](C)CS(C)(=O)=O [compound 662]	100%	100%

Compound	controlling effect, rate of death [1]	controlling effect, rate of death [2]
Cc1cc(C(C)n2nc(C(F)(F)F)nc2C(F)(F)F)ccc1NC(=O)c1cccc(I)c1C(=O)N[C@@H](C)CS(C)(=O)=O (stereo partly shown) [compound 573]	100%	100%
CSC[C@H](C)NC(=O)c1c(Cl)cccc1C(=O)Nc1ccc(Cn2cc(C(F)(F)C(F)(F)C(F)(F)C(F)(F)F)c(C(F)(F)C(F)(F)F)n2)cc1C [compound 663]	100%	100%
CSCC(C)NC(=O)c1c(Br)cccc1C(=O)Nc1ccc(Cn2nc(C(F)(F)F)nc2C(F)(F)F)cc1C (stereo not shown) [compound 177]	100%	100%
CSCC(C)(C)NC(=O)c1c(Cl)cccc1C(=O)Nc1ccc(Cn2nc(C(F)(F)F)cc2C(F)(F)F)cc1C [compound 8]	100%	100%
Cc1cc(Cn2cc(C(F)(F)C(F)(F)F)c(C(F)(F)F)n2)ccc1NC(=O)c1cccc(I)c1C(=O)N[C@@H](C)CS(C)(=O)=O [compound 642]	100%	100%
Cc1cc(C(C)n2nc(C(F)(F)C(F)(F)F)nc2C(F)(F)F)ccc1NC(=O)c1cccc(Cl)c1C(=O)N[C@@H](C)CS(C)(=O)=O (stereo partly shown) [compound 580]	100%	100%
CSC[C@H](C)NC(=O)c1c(C(=O)Nc2ccc(Cn3nc(C(F)(F)F)nc3C(F)(F)F)cc2C)cccc1[N+](=O)[O-] [compound 546]	100%	100%
CSC[C@H](C)NC(=O)c1c(Cl)cccc1C(=O)Nc1ccc(Cn2cc(C(F)(F)C(F)(F)C(F)(F)F)c(C(F)(F)C(F)(F)C(F)(F)F)n2)cc1C [compound 667]	100%	100%
CSCC(C)NC(=O)c1c(I)cccc1C(=O)Nc1ccc(Cn2nc(C(F)(F)F)nc2C(F)F)cc1C (stereo not shown) [compound 238]	100%	100%
CSC[C@H](C)NC(=O)c1c(I)cccc1C(=O)Nc1ccc(Cn2cc(C(F)(F)C(F)(F)C(F)(F)C(F)(F)F)c(C(F)(F)C(F)(F)F)n2)cc1C [compound 664]	100%	100%
CSC[C@H](C)NC(=O)c1c(Cl)cccc1C(=O)Nc1ccc(Cn2cc(C(F)(F)C(F)(F)C(F)(F)F)c(C(F)(F)F)n2)cc1C [compound 643]	100%	100%
Cc1cc(Cn2cc(C(F)(F)C(F)(F)C(F)(F)F)c(C(F)(F)C(F)(F)C(F)(F)F)n2)ccc1NC(=O)c1cccc(Cl)c1C(=O)N[C@@H](C)CS(C)(=O)=O [compound 669]	100%	100%
CSC[C@H](C)NC(=O)c1c(OS(C)(=O)=O)cccc1C(=O)Nc1ccc(-n2nc(C(F)(F)F)cc2C(F)(F)F)cc1C [compound 492]	100%	100%
Cc1cc(Cn2nc(C(F)(F)C(F)(F)F)nc2C(F)(F)F)ccc1NC(=O)c1cccc(I)c1C(=O)NC(C)CS(C)(=O)=O (stereo not shown) [compound 231]	100%	100%
Cc1cc(Cn2nc(C(F)(F)F)nc2C(F)(F)F)ccc1NC(=O)c1cccc(I)c1C(=O)NC(C)(C)C[S+](C)[O-] (stereo not shown) [compound 212]	100%	100%
Cc1cc(Cn2cc(C(F)(F)C(F)(F)C(F)(F)F)c(C(F)(F)C(F)(F)C(F)(F)F)n2)ccc1NC(=O)c1cccc(I)c1C(=O)N[C@@H](C)C[S+](C)[O-] (stereo partly shown) [compound 671]	100%	100%
CSC[C@H](C)NC(=O)c1c(I)cccc1C(=O)Nc1ccc(Cn2cc(C(F)(F)C(F)(F)C(F)(F)F)c(C(F)(F)C(F)(F)F)n2)cc1C [compound 660]	100%	100%
